# Laboratory results taken from EP0926242A1, “GLIOTOXIN DERIVATIVES AND ANTICANCER AGENT COMPRISING THE SAME” (priority 1996, dated 1998).
# Legend:
# various cancer cells = experiment: Judgement of apoptosis by DAPI nucleus staining; assay type: cell-based; conditions: agglomeration of chromosomes, fluorescence microscope
# Description: Antitumor activity of acetylgliotoxin against various cancer cells was measured by the MTT method. Various cancer cells were adjusted to 4.0 × 10^4 cells/mL by using a medium (hereinafter referred to as medium A) composed of RPMI 1640 medium (GIBCO) containing 10% fetal calf serum, and each 0.1 mL of the cancer cells was pipetted into each well of a 96 well microtiter plate. The plate was incubated in a carbon dioxide gas incubator at 37 °C for 20 hours, and each 0.025 mL of samples (test compounds) suitably diluted with the medium A was added. Then, incubation was further carried out in the carbon dioxide gas incubator at 37 °C for 72 hours. […] Produced crystals were dissolved, and absorbance at 570 nm was measured by a microplate reader. […] Apoptosis was determined by incubating the plate in the carbon dioxide gas incubator at 37 °C for 20 hours, adding each 0.025 mL of samples (test compounds) suitably diluted with the medium A, incubating in the carbon dioxide gas incubator at 37 °C for 72 hours, according to the above method, adding nucleus-staining fluorescent dye DAPI (4,6 - diaminodino-2-henylindole) to each well so as to become 0.5 ng/mL, and after leaving at room temperature for 10 minutes, confirming agglomeration of chromosomes by using a fluorescence microscope.
# [1] = Body weight in the COLON-26 evaluation in vivo (Example 1); parameters: species or system CDFI mice; conditions: day 21, COLON-26 mice, control 24.7 g
# Description: CDFI mice (female: 4 weeks old) were bought, and colon-26 subcultured in vivo in the subcutaneous tissue was taken out. The colon-26 was minced in a Petridish, and transplanted into the sulcutaneous tissue of CDFI mice in an amount of 10 mg/mouse by a trucker. The transplanted day was assigned day 0, and the size of the tumor and body weight were measured on day 7 and divided into groups by n=4. The size of tumor was calculated as tumor weight by the following formula. (Tumor Weight (mg) = Tumor Volume (mm)^3 =1/2 × Major Axis (mm) × Minor Axis (mm))^2 [formula]
# Administration was carried out from day 7 according to the following schedule. Dose was 0.2 mL/mouse, and injected into abdominal cavity. Acetylgliotoxin was dissolved in dimethyl sulfoxide (DMSO) in a concentration of 100 mg/mL, and adjusted to an object concentration (0.5 mg/kg, 1 mg/kg, 10 mg/kg, 20 mg/kg) by 5% Tween 80 (saline solution). In the evaluation of […], 1 mg/kg, injection was carried out every day for 5 days, in the case of 10 mg/kg, injected twice on day 7 and day 8, and in the case of 20 mg/kg, injected once on day 7.
# [2] = Body weight in the HCT-116 evaluation in vivo (Example 1); parameters: species or system Balb/c nu/nu mice; conditions: day 21, HCT-116 mice, control 17.5 g
# Description: Balb/c nu/nu mice (female: 5 weeks old) were bought, and HCT- 116 subcultured in vivo in the subcutaneous tissue was taken out. The HCT-116 was minced in a Petridish, and transplanted into the sulcutaneous tissue of […] mice in an amount of 30 mg/mouse by a trucker. The transplanted day was assigned day 0, and the size of the tumor and body weight were measured on day 7 and divided into groups by n=2.
# Acetylgliotoxin was dissolved in dimethyl sulfoxide (DMSO) in a concentration of 100 mg/mL, and adjusted to an object concentration (0.5 mg/kg, 1 mg/kg, 10 mg/kg, 20 mg/kg) by 5 % Tween 80 (saline solution). In the evaluation of 0.5, 1 mg/kg, injection was carried out every day for 5 days, in the case of 10 mg/kg, injected twice on day 7 and day8, and in the case of 20 mg/kg, injected once on day 7.
# [3] = test system: mouse carcinoma of the colon cells colon 26; experiment: Anticancer effect in vivo against colon 26 (Example 9 A); conditions: CDFI mice
# Description: • (A) Evaluationin vivo using mouse carcinoma of the colon cells colon 26 CDFI mice (female : 4 weks age) were bought, and colon 26 subcultured in the subcutaneous tissue of the mouse was taken out, and cut into small pieces by a scissors. The cancer cells were transplanted into subcutaneous tisue of CDFI mice by a trucker. The day was assigned 0 day, and the tumor was measured by a slide caliper after 7 days. The volume of the tumor was calculated, and divided into groups (each group : n = 4). The text compound was dissolved in dimethylsulfoxide, and diluted with 5 % Tween 80- saline aqueous solution. […] The administration was carried out after 7 days, after 11 days and after 15 days or after 7 days and after 8 days from the transplantation at a rate of once per one day. 21st day from the transplantation, the volume of tumor was measured and the volume of tumor and the inhibition against tumor multiplication rate (I.R.) were calculated. The volume of tumor was calculated by the following formula. (Tumore Volume [mm)^3 (]= Minor Axis [mm])^2 × Major Axis [mm] × (1/2) [formula] • The inhibition against tumor multiplication rate (I.R.) was calculated by the following formula. I.R. [%] = {1- (Average Tumor Volume of Administration Group / Average Tumor Volume of Control Group)) × 100 [formula] • (B) Evaluation in vivo using human carcinoma of the colon cells HCT-116 Balb/c nu/nu mice (female : 5 weks age) were bought, and HCT-116 (Dainippon Seiyaku) subcultured in the subcutaneous tissue of the mouse was taken out, and cut into small pieces by a scissors. The cancer cells were transplanted into subcutaneous tissue of […] mice by a trucker. The day was assigned 0 day, and the tumor was measured by a slide caliper after 7 days. The volume of the tumor was calculated, and divided into groups (each group : n = 2). The text compound was dissolved in dimethylsulfoxide, and diluted with 5 % Tween 80- saline aqueous solution. […] The administration was carried out after 7 days, after 11 days and after 15 days from the transplantation at a rate of once per one day. 21st day from the transplantation, the volume of tumor was measured and the volume of tumor and the inhibition against tumor multiplication rate (I.R.) were calculated by the above formulas.
# [4] = 2.5[mg/kg]×3 (i.p.), 7,11,15th days
# [5] = 5 [mg/kg]×3 (i.p.), 7,11,15th days
# [6] = 10 [mg/kg]×2 (i.p.), 7,8th days
structure (smiles),measurement,setting,value
CC(=O)OC1C=CC=C2CC34SSC(CO)(C(=O)N3C21)N(C)C4=O (stereo not drawn) [acetylgliotoxin],apoptosis (cell death) -inducing ability,various cancer cells,apoptosis (cell death) -inducing ability
same,weight,[1]; 0.5 mg/kg×5 i.p.(d7-11),24.7 g
same,weight,[1]; 1 mg/kg×5 i.p.(d7-11),24.9 g
same,weight,"[1]; 10 mg/kg×2 i.p.(d7, 8)",24.1 g
same,weight,[1]; 20 mg/kg×1 i.p.(d7),25.2 g
same,weight,[2]; 0.5 mg/kg×5 i.p.(d7-11),17.1 g
same,weight,[2]; 1 mg/kg×5 i.p.(d7-11),17.8 g
same,weight,"[2]; 10 mg/kg×2 i.p.(d7, 8)",15.8 g
same,weight,[2]; 20 mg/kg×1 i.p. (d7),15.9 g
same,I.R. (21st day),[3]; [4],19.6%
same,I.R.Max,[3]; [4],44.9%
same,I.R. (21st day),[3]; [5],11.8%
same,I.R.Max,[3]; [5],56.8%
same,I.R. (21st day),[3]; [6],26.0%
same,I.R.Max,[3]; [6],68.8%
